From PMC7619385 (ACS infectious diseases, 2025)
Like-named read-outs stand apart in the source and are kept apart here.

Columns and labels:
NLuc::LmxCLK1 = NLuc::LmxCLK1 (Leishmania mexicana, UniProt E9AMP2); assay: cell-based; assay type: cell-based; details: 10 µM compound, tracer SV366, promastigotes
Protocol: All compounds were tested at a fixed concentration of 10 µM to enable direct comparison of their target occupancy in live cells.
Serially diluted probes (5 µL) were added to 85 µL of cells in culture media or 85 µL of purified protein. Final well volumes were adjusted to 100 µL with sterile Opti-MEM™ I Reduced Serum Medium (Thermo-Scientific) – for wells containing cells; or Kinase Buffer - for wells containing purified protein. For tracer displacement assays, samples were prepared as above, but final volume was brought to 100 µL by addition of vehicle or serially-diluted test compounds. Final DMSO concentration in these assays was 1%. […] Light emissions at 460+10 nm (BRET donor) and at 610+20 nm (BRET acceptor) were sequentially recorded (integration time = 0.5 s, gain = 3600) using a luminometer (BMG LABTECH Clariostar or Biotek Synergy HT). BRET values are reported in milli-BRET (mBRET) units (mBU), obtained by dividing the acceptor luminescence by the donor luminescence and multiplying the result by a factor of 1,000. BRET values were converted to blank-corrected probe occupancies (%) according to equation [1]: (1) Probeoccupancy(%)=X−Z/Y−Z×100 where X = mBRET value in the presence of the test compound and the probe, Y = mBRET value in the presence of probe only, and Z = mBRET value in the absence of probe and test compound. […]

LmxCLK1 = target: T1, LmxCLK1 (Leishmania mexicana, UniProt E9AMP2); assay: biochemical; assay type: binding
T1 sequence (E9AMP2 1-422): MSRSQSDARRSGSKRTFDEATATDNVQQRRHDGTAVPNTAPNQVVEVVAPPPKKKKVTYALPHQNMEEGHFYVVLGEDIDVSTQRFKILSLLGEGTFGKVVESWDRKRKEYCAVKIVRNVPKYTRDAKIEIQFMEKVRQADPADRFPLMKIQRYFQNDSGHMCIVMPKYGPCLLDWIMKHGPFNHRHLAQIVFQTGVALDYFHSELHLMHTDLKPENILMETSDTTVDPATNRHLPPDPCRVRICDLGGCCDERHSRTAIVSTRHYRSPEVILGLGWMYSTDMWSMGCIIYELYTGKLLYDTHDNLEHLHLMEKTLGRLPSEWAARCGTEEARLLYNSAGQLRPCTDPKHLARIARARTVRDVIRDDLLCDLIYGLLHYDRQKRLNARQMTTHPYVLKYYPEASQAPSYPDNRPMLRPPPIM

[1] = DSF, 10 µM compound, 2 µM LmxCLK1, Run 1
[2] = DSF, 10 µM compound, 2 µM LmxCLK1, Run 2
[3] = DSF, 10 µM compound, 2 µM LmxCLK1, mean of two runs
[4] = DSF, 10 µM compound, 2 µM LmxCLK1, Run 1, read-out: ΔTm Run 1
[5] = DSF, 10 µM compound, 2 µM LmxCLK1, Run 2, read-out: ΔTm Run 2
[6] = DSF, 10 µM compound, 2 µM LmxCLK1, mean of two runs, read-out: ΔTm Average

Molecule	ΔTm Run 1 (LmxCLK1; [1])	ΔTm Run 2 (LmxCLK1; [2])	ΔTm Average (LmxCLK1; [3])	other results
C[C@H](Nc1ncnc2nc[nH]c12)c1cc2cccc(Cl)c2c(=O)n1-c1ccccc1 [IPI-145 (INK1197)]	–	–	–	Target occupancy Run 1 (NLuc::LmxCLK1): -2.8%; Target occupancy Run 2 (NLuc::LmxCLK1): 0.6%; Target occupancy Average (NLuc::LmxCLK1; mean of two experiments): -1.1%
Nc1cccc(-c2cc3c(Oc4cccc(O)c4)ncnc3[nH]2)c1 [TWS119]	0.1 °C	0.2 °C	0.1 °C	–
COc1cc2c(N3CCN(C(=O)Nc4ccc(OC(C)C)cc4)CC3)ncnc2cc1OCCCN1CCCCC1 [Tandutinib (MLN518)]	0.1 °C	-0.1 °C	0.0 °C	–
CNC(=O)c1cc(COc2nnc(Nc3ccc(Cl)cc3)c3ccoc23)ccn1 [Telatinib]	–	–	–	ΔTm at 10 µM (LmxCLK1; [4]): -0.3 °C; ΔTm at 10 µM (LmxCLK1; [5]): -0.5 °C; ΔTm at 10 µM (LmxCLK1; [6]): -0.4 °C
CO[C@H]1C[C@@H]2CC[C@@H](C)[C@@](O)(O2)C(=O)C(=O)N2CCCC[C@H]2C(=O)O[C@H]([C@H](C)C[C@@H]2CC[C@@H](OC(=O)C(C)(CO)CO)[C@H](OC)C2)CC(=O)[C@H](C)/C=C(\C)[C@@H](O)[C@@H](OC)C(=O)[C@H](C)C[C@H](C)/C=C/C=C/C=C/1C [Temsirolimus (CCI-779)]	-0.1 °C	-0.3 °C	-0.2 °C	–
COc1ccc2cc(-c3nc(-c4ccc([S+](C)[O-])cc4)[nH]c3-c3ccncc3)ccc2c1 (centres unmarked) [Tie2 kinase inhibitor]	–	–	–	ΔTm Average (LmxCLK1): 0.1 °C; ΔTm Run 1 (LmxCLK1): 0.1 °C; ΔTm Run 2 (LmxCLK1): 0 °C
COc1cc2nccc(Oc3ccc(NC(=O)Nc4cc(C)on4)c(Cl)c3)c2cc1OC [Tivozanib (AV-951)]	–	–	–	ΔTm at 10 µM (LmxCLK1; [4]): 0.2 °C; ΔTm at 10 µM (LmxCLK1; [5]): 0 °C; ΔTm at 10 µM (LmxCLK1; [6]): 0.1 °C
Nc1ccc(-c2ccc3ncc4ccc(=O)n(-c5cccc(C(F)(F)F)c5)c4c3c2)cn1 [Torin 2]	-0.1 °C	0.0 °C	0.0 °C	–
CC(=O)Nc1cccc(-n2c(=O)n(C3CC3)c(=O)c3c(Nc4ccc(I)cc4F)n(C)c(=O)c(C)c32)c1 [Trametinib (GSK1120212)]	–	–	–	ΔTm at 10 µM (LmxCLK1; [4]): 0 °C; ΔTm at 10 µM (LmxCLK1; [5]): -0.5 °C; ΔTm at 10 µM (LmxCLK1; [6]): -0.2 °C
CC(C)(C)c1cc(C=C(C#N)C#N)cc(C(C)(C)C)c1O [Tyrphostin 9]	-0.3 °C	-0.3 °C	-0.3 °C	–
CC(C)(C)c1cc(/C=C(\C#N)C(N)=S)cc(C(C)(C)C)c1O [Tyrphostin AG 879]	–	–	–	ΔTm at 10 µM (LmxCLK1; [4]): -0.1 °C; ΔTm at 10 µM (LmxCLK1; [5]): -0.2 °C; ΔTm at 10 µM (LmxCLK1; [6]): -0.2 °C
COc1cc2ncc(-c3ccccc3)nc2cc1OC [Tyrphostin AG 1296]	0.3 °C	0.1 °C	0.2 °C	–
CCO.N#CC(=C(/N)Sc1ccccc1N)/C(C#N)=C(\N)Sc1ccccc1N [U0126-EtOH]	–	–	–	ΔTm Average (LmxCLK1): -0.1; ΔTm Run 1 (LmxCLK1): -0.4; ΔTm Run 2 (LmxCLK1): 0.1 °C
CNCc1ccc(-c2cc(-c3nc(-c4ccc(S(=O)(=O)C(C)C)cc4)cnc3N)on2)cc1 [VE-822]	–	–	–	ΔTm at 10 µM (LmxCLK1; [4]): 0.6 °C; ΔTm at 10 µM (LmxCLK1; [5]): 0.1 °C; ΔTm at 10 µM (LmxCLK1; [6]): 0.4 °C
Cc1cc(Nc2cc(N3CCN(C)CC3)nc(Sc3ccc(NC(=O)C4CC4)cc3)n2)n[nH]1 [VX-680 (Tozasertib)]	-0.3 °C	-0.4 °C	-0.3 °C	–
NC(=O)c1ccc(N(C(N)=O)c2c(F)cccc2F)nc1-c1ccc(F)cc1F [VX-702]	–	–	–	ΔTm at 10 µM (LmxCLK1; [4]): 0.3 °C; ΔTm at 10 µM (LmxCLK1; [5]): -0.2 °C; ΔTm at 10 µM (LmxCLK1; [6]): 0 °C
O=c1ncn2nc(Sc3ccc(F)cc3F)ccc2c1-c1c(Cl)cccc1Cl [VX-745]	–	–	–	ΔTm at 10 µM (LmxCLK1; [4]): 0.4 °C; ΔTm at 10 µM (LmxCLK1; [5]): 0.2 °C; ΔTm at 10 µM (LmxCLK1; [6]): 0.3 °C
COc1cc2/c(=N/c3ccc(Br)cc3F)nc[nH]c2cc1OCC1CCN(C)CC1 [Vandetanib (ZD6474)]	0.0 °C	-0.1 °C	-0.1 °C	–
Cl.Cl.Clc1ccc(Nc2nnc(Cc3ccncc3)c3ccccc23)cc1 [Vatalanib (PTK787) 2HCl]	-0.2 °C	0.0 °C	-0.1 °C	–
CCCS(=O)(=O)Nc1ccc(F)c(C(=O)c2c[nH]c3ncc(-c4ccc(Cl)cc4)cc23)c1F [Vemurafenib (PLX4032)]	-0.1 °C	-0.1 °C	-0.1 °C	–

Molecule	ΔTm Run 1 (LmxCLK1; [1])	ΔTm Run 2 (LmxCLK1; [2])	ΔTm Average (LmxCLK1; [3])	other results
CC[C@@H]1C(=O)N(C)c2cnc(Nc3ccc(C(=O)N[C@H]4CC[C@H](N5CCN(CC6CC6)CC5)CC4)cc3OC)nc2N1C(C)C [Volasertib (BI 6727)]	0.3 °C	0.0 °C	0.2 °C	–
COc1ccc(N(C(=O)Oc2c(C)cccc2C)c2ccnc(Nc3ccc(N4CCN(C)CC4)cc3)n2)c(OC)c1 [WH-4-023]	–	–	–	ΔTm Average (LmxCLK1): -0.3; ΔTm Run 1 (LmxCLK1): -0.4; ΔTm Run 2 (LmxCLK1): -0.2
COC(=O)Nc1ccc(-c2nc(N3CCOCC3)c3cnn(C4CCN(C(=O)OC)CC4)c3n2)cc1 [WYE-354]	-0.1 °C	-0.2 °C	-0.1 °C	–
CNC(=O)Nc1ccc(-c2nc(N3CC4CCC(C3)O4)c3cnn(C4CCC5(CC4)OCCO5)c3n2)cc1 [WYE-125132 (WYE-132)]	0.2 °C	-0.1 °C	0.0 °C	–
C=CC(=O)Nc1cccc(Oc2nc(Nc3ccc(N4CCN(C)CC4)cc3OC)ncc2Cl)c1 [WZ4002]	–	–	–	ΔTm at 10 µM (LmxCLK1; [4]): -0.1 °C; ΔTm at 10 µM (LmxCLK1; [5]): -0.3 °C; ΔTm at 10 µM (LmxCLK1; [6]): -0.2 °C
CCC(=O)Nc1cccc(Oc2nc(Nc3ccc(N4CCN(C)CC4)cc3OC)ncc2Cl)c1 [WZ4003]	–	–	–	ΔTm at 10 µM (LmxCLK1; [4]): 0.1 °C; ΔTm at 10 µM (LmxCLK1; [5]): -0.1 °C; ΔTm at 10 µM (LmxCLK1; [6]): 0 °C
O=C(Nc1ccc(-c2ccnc(Nc3ccc(N4CCOCC4)cc3)n2)cc1)C1CCCN1 (centres unmarked) [XL019]	–	–	–	ΔTm at 10 µM (LmxCLK1; [4]): 0.6 °C; ΔTm at 10 µM (LmxCLK1; [5]): 0.4 °C; ΔTm at 10 µM (LmxCLK1; [6]): 0.5 °C
CCOc1cc(N2CCC(O)CC2)ccc1Nc1ncc2c(n1)N(C)c1ccccc1C(=O)N2C [XMD8-92]	–	–	–	ΔTm Average (LmxCLK1): -0.3; ΔTm Run 1 (LmxCLK1): -0.2; ΔTm Run 2 (LmxCLK1): -0.5
C[C@@H](N)[C@H]1CC[C@H](C(=O)Nc2ccncc2)CC1.Cl.Cl [Y-27632 2HCl]	0.1 °C	0.1 °C	0.1 °C	–
Nc1ccc(C(=O)Nc2cccc(-c3nc(N4CCOCC4)c4oc5ncccc5c4n3)c2)cn1 [YM201636]	–	–	–	ΔTm Run 1 (LmxCLK1): 0.4 °C; ΔTm Run 2 (LmxCLK1): 0 °C
Cc1cc(C)nc(NS(=O)(=O)c2ccc(NC(=S)NC(=O)COc3ccc(Br)cc3Cl)cc2)n1 [ZCL278]	0.1 °C	-0.1 °C	0.0 °C	–
COc1cc2ncnc(Nc3ccc(Cl)cc3F)c2cc1OC [ZM 306416]	0.2 °C	0.0 °C	0.1 °C	–
Cc1cc(F)c(Nc2ncnc3cc(OCc4ccccc4)ccc23)cc1O.Cl [ZM 323881 HCl]	0.1 °C	0.0 °C	0.0 °C	–
COc1cc2c(Nc3ccc(NC(=O)c4ccccc4)cc3)ncnc2cc1OCCCN1CCOCC1 [ZM 447439]	0.0 °C	-0.2 °C	-0.1 °C	–
FC(F)c1nc2ccccc2n1-c1nc(N2CCOCC2)nc(N2CCOCC2)n1 [ZSTK474]	–	–	–	ΔTm at 10 µM (LmxCLK1; [4]): 0 °C; ΔTm at 10 µM (LmxCLK1; [5]): 0 °C; ΔTm at 10 µM (LmxCLK1; [6]): 0 °C
CO[C@H]1C[C@@H]2CC[C@@H](C)[C@@](O)(O2)C(=O)C(=O)N2CCCC[C@H]2C(=O)O[C@H]([C@H](C)C[C@@H]2CC[C@H](n3cnnn3)[C@H](OC)C2)CC(=O)[C@H](C)/C=C(\C)[C@@H](O)[C@@H](OC)C(=O)[C@H](C)C[C@H](C)/C=C/C=C/C=C/1C [Zotarolimus(ABT-578)]	0.2 °C	0.0 °C	0.1 °C	–
CA75 (GAK)	–	–	–	ΔTm Average (LmxCLK1): -0.1; ΔTm Run 1 (LmxCLK1): -0.2; ΔTm Run 2 (LmxCLK1): 0 °C
HER2-Inhibitor-1	0.2 °C	-0.1 °C	0.1 °C	–
PHT-427	0.4 °C	0.3 °C	0.3 °C	–
S-Ruxolitinib (INCB018424)	0.6 °C	0.6 °C	0.6 °C	–
